Results: patent publication US7910579B2, “Benzoxazole derivatives” (Tohoku University, priority 2006, dated 2011)

How the values were obtained:
Acute Toxicity Test = type: in vivo; conditions: Crj:CD1 male mice, tail vein, observed for 7 days
[1] = test system: histidine-requiring Salmonella typhimurium TA100 and TA98 strains; assay: Mutagenicity Test (reverse mutation test); type: cell-based; conditions: for Relative Activity in the presence of S9Mix / Relative Activity in the absence of S9Mix: reverse mutation test; as to Relative Activity in the presence of S9Mix: key: minus: The number of colonies after reverse mutation did not increase at least two times that of the negative control
In short: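 Preincubation reverse-mutation test in S. typhimurium TA100 and TA98, with and without S9mix, 20 min at 37° C, then 48 h at 37° C on minimal glucose agar. Six doses (common ratio 2) in DMSO, top dose 5000 μg/plate or growth-inhibiting dose. Revertant colonies counted; positive at ≥2-fold over DMSO control with dose dependency or reproducibility.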

[2] = target: T1, Tg mouse intracerebral amyloid plaque (Homo sapiens, UniProt P05067); assay: Investigation of transgenic (Tg) mice with amyloid deposition in their brain (fluorescence microscopy of brain sections after intravenous administration); type: in vivo; conditions: Tg2576 mouse, 4 mg/kg intravenous; for Passage through the blood-brain barrier and binding to Tg mouse intracerebral amyloid plaque: 1 hour after administration
T1 construct: from tissue; host or cells: brain of Tg mice (Tg2576 or APPswe2576/Tau JNPL3) after intravenous dosing

[3] = Brain Permeability Test Through HPLC; type: in vivo; conditions: mice, 2 minutes after intravenous administration
Method: A compound of the invention was intravenously administered to mice, and tested for its in-vivo brain permeability in the mice.
(1) Slc:ICR mice (by Nippon SLC) (body weight, 30 to 40 g; n=3) were used.
(2) A test compound was dissolved in a mixture of 5% Tween 80-5% ethyl alcohol-5% 1 N HCl-physiological saline water, and injected into the test mouse via its tail vein. Two minutes after the administration, the blood was collected from the test mouse under ether anesthesia via its abdominal aorta using a heparin-steeped syringe, and the brain material was collected from it.
(3) After collected, the blood was centrifuged at 4° C. and 14,000 rpm for 10 minutes, and the supernatant was stored at −80° C. as plasma. After collected, the brain material (including the cerebellum) was stored at −80° C.
(4) 0.3 ml of acetonitrile was added to 0.1 ml of the plasma, then vortexed, and centrifuged at 4° C. and under 10,000 G for 5 minutes. After centrifuged, 0.2 ml of the resulting supernatant was transferred into Mini-Uniprep (Whatman), then 0.2 ml of 20 mM phosphate buffer was added to it and filtered. 0.2 ml of the resulting filtrate was analyzed through HPLC (Shiseido Nanospace SI-2; pump, 3001; UV-VIS detector, 3002; column thermostat, 3004; fluorescence detector, 3013).
(5) 2 ml of methanol was added to the brain, homogenized, and centrifuged at 4° C. and 3000 or 4000 rpm for 10 minutes. After centrifuged, 500 μl of the resulting supernatant was diluted 10-fold with 20 mM phosphate buffer. (i) 2 to 3 ml of acetonitrile, (ii) 2 to 5 ml of methanol and (iii) 4 to 6 ml of ultra-pure water were led through a cartridge for solid-phase extraction (J. T. Baker Speedisk) in that order, and the 10-fold diluted supernatant solution was led through it. Via an empty syringe, air was applied to the cartridge for solid-phase extraction, two or three times to remove water, and then this was eluted with about 500 μl of acetonitrile or methanol, and the eluate was diluted 2-fold with 20 mM phosphate buffer. 0.2 ml of the resulting solution was analyzed through HPLC.
(6) The test compound content in the plasma and in the brain was determined relative to the dose of the compound (% ID (injected dose)/g or ml).

[4] = irrespective of the absence or presence of S9mix

T1 sequence (P05067 672-713 limits assumed): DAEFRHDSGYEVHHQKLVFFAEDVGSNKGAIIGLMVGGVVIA

| SMILES | Maximum Permissible Dose (mg/kg, intravenous administration) (Acute Toxicity Test) | Relative activity (mutagenicity) ([1]; in the presence of S9mix) | Relative Activity in the presence of S9Mix [1] | Relative Activity in the absence of S9Mix [1] | Passage through the blood-brain barrier and binding to Tg mouse intracerebral amyloid plaque [2] | Correspondence of the binding site to the anti-Aβ antibody-stained site of the same section ([2]; antibody 4G8) | Brain Permeability: Brain [3] | Brain Permeability: Plasma [3] | Relative activity (mutagenicity) [1, 4] |
| --- | --- | --- | --- | --- | --- | --- | --- | --- | --- |
| CN(C)c1ncc(/C=C/c2nc3ccc(OC(CO)CF)cc3o2)s1 (centres unmarked) [THK-763, (E)-6-[(1-fluoromethyl-2-hydroxy)ethoxy]-2-[2-[2-dimethylamino-thiazol-5-yl]ethenyl]benzoxazole] | ≧10 mg/kg | weak | minus | 3058 | – | – | – | – | – |
| OCC(CF)Oc1ccc2nc(/C=C/c3cnc(N4CCOCC4)s3)oc2c1 (centres unmarked) [THK-702, (E)-2-[2-(2-morpholinothiazol-5-yl)ethenyl]-6-[(1-fluoromethyl-2-hydroxy)ethoxy]-benzoxazole] | ≧10 mg/kg | – | minus | minus | passed through the blood-brain barrier, and bound to the amyloid plaque of the Tg mouse | completely corresponded to the anti-Aβ antibody-stained site | 5.1 % ID/g or ml | 2.7 % ID/g or ml | minus |
| CNc1ncc(/C=C/c2nc3ccc(OC(CO)CF)cc3o2)s1 (centres unmarked) [THK-761, (E)-6-[(1-fluoromethyl-2-hydroxy)ethoxy]-2-[2-[2-methylaminothiazol-5-yl]ethenyl]-benzoxazole] | ≧10 mg/kg | weak | minus | 11995 | – | – | – | – | – |
| OCC(CF)Oc1ccc2nc(/C=C/c3cnc(N4CCCC4)s3)oc2c1 (centres unmarked) [THK-752, (E)-6-[(1-fluoromethyl-2-hydroxy)ethoxy]-2-[2-[2-(pyrrolidin-1-yl)-thiazol-5-yl]ethenyl]benzoxazole] | ≧10 mg/kg | – | minus | minus | – | – | 6.7 % ID/g or ml | 1.9 % ID/g or ml | minus |
| FCCOc1ccc2nc(/C=C/c3cnc(N4CCOCC4)s3)oc2c1 [THK-525, 6-(2-fluoro-ethoxy)-2-[2-(2-morpholin-4-yl-thiazol-5-yl)-vinyl]-benzoxazole] | ≧10 mg/kg | – | minus | minus | passed through the blood-brain barrier, and bound to the Tg mouse intracerebral amyloid plaque | – | 7.9 % ID/g or ml | 3.1 % ID/g or ml | minus |
